Assay results reported in PubChem BioAssay AID200 (DTP/NCI, 2004).
Values joined by “and” are separate entries in the source; they are usually repeats but may differ in a detail not shown here. Equal values may be shown once. Toxic doses and inconclusive results are not listed.

Tested on: B6C3F1 mice, B16 melanoma ip, median survival T/C
Experiment: NCI In Vivo Anticancer Drug Screen. Data for tumor model B16 Melanoma (intraperitoneal) in B6C3F1 mice
Conditions: endpoint: median survival time, schedule: Q01DX009 (ip), higher = longer survival
Procedure, shortened: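 Transplantable tumor in mice; treated vs vehicle control groups; survival or tumor size measured; value = T/C ratio.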

[1] = dose: 50.0 mg/kg/injection, vehicle: saline
[2] = dose: 100.0 mg/kg/injection, vehicle: saline
[3] = dose: 100.0 mg/kg/injection, vehicle: saline with Tween-80

SMILES: CN(C)N=Nc1cccc(C(N)=O)c1
- T/C [1]: 119 % of control
- T/C [2]: 67 % of control

SMILES: CCOC(=O)Nc1cc2c(c(N)n1)N=C(c1ccc(Cl)cc1Cl)CN2
- T/C (dose: 1.5 mg/kg/injection, vehicle: saline with Tween-80): 113 % of control and 119 % of control
- T/C (dose: 3.0 mg/kg/injection, vehicle: saline with Tween-80): 115 % of control
- T/C (dose: 6.0 mg/kg/injection, vehicle: saline with Tween-80): 115 % of control
- T/C (dose: 12.5 mg/kg/injection, vehicle: saline with Tween-80): 155 % of control

SMILES: C[n+]1c(-c2cccc(OCCOCCOc3cccc(-c4c5cc(N)ccc5c5ccc(N)cc5[n+]4C)c3)c2)c2cc(N)ccc2c2ccc(N)cc21
- T/C (dose: 0.25 mg/kg/injection, vehicle: distilled water + Tween-80): 99 % of control
- T/C (dose: 0.5 mg/kg/injection, vehicle: distilled water + Tween-80): 107 % of control
- T/C (dose: 1.0 mg/kg/injection, vehicle: distilled water + Tween-80): 117 % of control

SMILES: O=c1cc(-c2ccccc2)[nH]c2c1CCCC2
- T/C [3]: 109 % of control
- T/C (dose: 200.0 mg/kg/injection, vehicle: saline with Tween-80): 117 % of control

SMILES: O=C(CCCCCCC(=O)ON1C(=O)CCC1=O)ON1C(=O)CCC1=O
- T/C (dose: 25.0 mg/kg/injection, vehicle: saline with Tween-80): 99 % of control
- T/C (dose: 50.0 mg/kg/injection, vehicle: saline with Tween-80): 96 % of control
- T/C [3]: 103 % of control

SMILES: O=c1ssc(=Nc2ccccc2)n1-c1ccccc1
- T/C (dose: 12.5 mg/kg/injection, vehicle: Klucel (hydroxypropylcellulose) (HPC)): 98 % of control
- T/C (dose: 25.0 mg/kg/injection, vehicle: Klucel (hydroxypropylcellulose) (HPC)): 101 % of control
- T/C (dose: 50.0 mg/kg/injection, vehicle: Klucel (hydroxypropylcellulose) (HPC)): 96 % of control
- T/C (dose: 100.0 mg/kg/injection, vehicle: Klucel (hydroxypropylcellulose) (HPC)): 97 % of control
- T/C (dose: 200.0 mg/kg/injection, vehicle: Klucel (hydroxypropylcellulose) (HPC)): 92 % of control
- T/C (dose: 400.0 mg/kg/injection, vehicle: Klucel (hydroxypropylcellulose) (HPC)): 96 % of control

SMILES: CC(=O)O[C@H]1C(=O)[C@@]2(C)C(C(OC(=O)c3ccccc3)[C@]3(O)CC(OC(=O)[C@H](OC(=O)CCC(=O)O)C(NC(=O)c4ccccc4)c4ccccc4)C(C)=C1C3(C)C)C1(OC(C)=O)COC1C[C@@H]2O (stereo partly drawn)
- T/C (dose: 1.25 mg/kg/injection, vehicle: water): 111 % of control
- T/C (dose: 2.5 mg/kg/injection, vehicle: sodium bicarbonate): 119 % of control
- T/C (dose: 2.5 mg/kg/injection, vehicle: water): 159 % of control
- T/C (dose: 5.0 mg/kg/injection, vehicle: sodium bicarbonate): 154 % of control
- T/C (dose: 5.0 mg/kg/injection, vehicle: water): 166 % of control
- T/C (dose: 10.0 mg/kg/injection, vehicle: sodium bicarbonate): 159 % of control
- T/C (dose: 10.0 mg/kg/injection, vehicle: water): 160 % of control and 183 % of control
- T/C (dose: 20.0 mg/kg/injection, vehicle: sodium bicarbonate): 154 % of control
- T/C (dose: 20.0 mg/kg/injection, vehicle: water): 160 % of control and 201 % of control
- T/C (dose: 40.0 mg/kg/injection, vehicle: sodium bicarbonate): 185 % of control
- T/C (dose: 40.0 mg/kg/injection, vehicle: water): 177 % of control and 218 % of control

SMILES: Nc1ncnc2c1ncn2C1OC(CO)C(O)C1O (stereo not drawn)
- T/C (dose: 1.56 mg/kg/injection, vehicle: saline): 94 % of control
- T/C (dose: 3.12 mg/kg/injection, vehicle: saline): 94 % of control
- T/C (dose: 6.25 mg/kg/injection, vehicle: saline): 96 % of control
- T/C (dose: 12.5 mg/kg/injection, vehicle: saline): 107 % of control
- T/C (dose: 25.0 mg/kg/injection, vehicle: saline): 63 % of control
- T/C [1]: 45 % of control
- T/C [2]: 37 % of control
